Source: the NIST ThermoML archive (doi:10.1016/j.jct.2019.02.020)

Assay: mn = molality of the nth substance listed, in mol/kg
Details: 100 kPa, Liquid; for viscosity: Falling or rolling sphere viscometry; for mass density: Vibrating tube method

O=S(=O)(O)O [sulfuric acid] + O
Details	mass density, 283.15 K [kg/m3]	mass density, 288.15 K [kg/m3]	mass density, 293.15 K [kg/m3]	mass density, 298.15 K [kg/m3]	viscosity, 283.15 K [mPa·s]	viscosity, 288.15 K [mPa·s]	viscosity, 293.15 K [mPa·s]	viscosity, 298.15 K [mPa·s]
m1 = 0.05	1003.29	1002.61	1001.64	1000.42	1.322	1.151	1.014	0.9019
m1 = 0.1	1006.64	1005.89	1004.86	1003.57	1.326	1.156	1.019	0.9068
m1 = 0.1498	1009.9	1009.09	1007.99	1006.66	1.339	1.167	1.029	0.916
m1 = 0.1997	1013.13	1012.25	1011.1	1009.71	1.352	1.179	1.04	0.9259
m1 = 0.2501	1016.29	1015.35	1014.14	1012.71	1.363	1.19	1.049	0.9338
m1 = 0.2999	1019.54	1018.53	1017.27	1015.79	1.375	1.2	1.058	0.9443
m1 = 0.3312	–	–	1019.13	–	1.386	1.212	1.07	0.9534
m1 = 0.3996	1025.76	1024.63	1023.27	1021.7	1.399	1.221	1.077	0.9597
m1 = 0.5001	1031.92	1030.68	1029.22	1027.57	1.415	1.236	1.091	0.9715
m1 = 0.6672	–	–	1039.1	–	1.48	1.294	1.144	1.024
m1 = 0.9962	–	–	1057.95	–	1.502	1.321	1.172	1.049
m1 = 1.331	–	–	1076.44	–	1.653	1.45	1.282	1.144
m1 = 1.669	–	–	1094.43	–	1.733	1.519	1.343	1.197
m1 = 2	–	–	1111.51	–	1.817	1.589	1.406	1.252
m1 = 2.327	–	–	1127.75	–	1.914	1.672	1.476	1.314
m1 = 2.667	–	–	1143.44	–	2.017	1.768	1.569	1.391
m1 = 2.994	–	–	1161.33	–	2.154	1.882	1.663	1.474
m1 = 3.33	–	–	1173.91	–	2.28	1.978	1.725	1.534
m1 = 3.667	–	–	1188.61	–	2.331	2.036	1.794	1.596
